Results reported in the OligoGym collection.
HELM strings list units from the 5' end as sugar, base in round brackets, then linkage (d deoxyribose, r ribose, m 2'-O-methyl, p phosphodiester). Strings are as the collection lists them; they lack the last nucleoside at the 3' end of the tested compound. [moe] = 2'-O-(2-methoxyethyl) (MOE); [sp] = phosphorothioate linkage; [m5C] = 5-methylcytosine

Target: C9ORF72
Assay: mouse, dose not given
Conditions: ASO

| Substance | 3 h FOB score [score 0-7] |
| --- | --- |
| RNA1{[moe]([m5C])[sp].[moe](T)p.[moe](G)p.d([m5C])[sp].d(G)[sp].d(A)[sp].d(T)[sp].d([m5C])[sp].d([m5C])[sp].d([m5C])[sp].d([m5C])[sp].d(A)[sp].d(T)[sp].[moe](T)p.[moe]([m5C])p.[moe]([m5C])p.[moe](A)p.[moe](G)[sp].[moe](T)}$$$$ (last 3' nucleoside missing) | 1.75 |
| RNA1{[moe]([m5C])[sp].[moe]([m5C])[sp].[moe]([m5C])[sp].[moe](G)[sp].[moe](G)[sp].d([m5C])[sp].d([m5C])[sp].d([m5C])[sp].d([m5C])[sp].d(T)[sp].d(A)[sp].d(G)[sp].d([m5C])[sp].d(G)[sp].d([m5C])[sp].[moe](G)[sp].[moe]([m5C])[sp].[moe](G)[sp].[moe](A)}$$$$ (last 3' nucleoside missing) | 6 |
| RNA1{[moe]([m5C])[sp].[moe]([m5C])p.[moe](G)p.[moe](G)p.[moe]([m5C])p.[moe]([m5C])p.[moe]([m5C])p.d([m5C])[sp].d(T)[sp].d(A)[sp].d(G)[sp].d([m5C])[sp].d(G)[sp].d([m5C])[sp].d(G)[sp].d([m5C])[sp].d(G)[sp].[moe](A)[sp].[moe]([m5C])}$$$$ (last 3' nucleoside missing) | 2 |
| RNA1{[moe]([m5C])[sp].[moe]([m5C])p.[moe](G)p.[moe](G)p.[moe]([m5C])p.[moe]([m5C])p.d([m5C])[sp].d([m5C])[sp].d(T)[sp].d(A)[sp].d(G)[sp].d([m5C])[sp].d(G)[sp].d([m5C])[sp].d(G)[sp].[moe]([m5C])p.[moe](G)[sp].[moe](A)}$$$$ (last 3' nucleoside missing) | 5.75 |
| RNA1{[moe]([m5C])[sp].[moe]([m5C])p.[moe](G)p.[moe](G)p.[moe]([m5C])p.[moe]([m5C])p.d([m5C])[sp].d([m5C])[sp].d(T)[sp].d(A)[sp].d(G)[sp].d([m5C])[sp].d(G)[sp].d([m5C])[sp].d(G)[sp].d([m5C])[sp].[moe](G)p.[moe](A)[sp].[moe]([m5C])}$$$$ (last 3' nucleoside missing) | 3.5 |
| RNA1{[moe]([m5C])[sp].[moe]([m5C])p.[moe](G)p.[moe](G)p.[moe]([m5C])p.d([m5C])[sp].d([m5C])[sp].d([m5C])[sp].d(T)[sp].d(A)[sp].d(G)[sp].d([m5C])[sp].d(G)[sp].d([m5C])[sp].[moe](G)p.[moe]([m5C])p.[moe](G)[sp].[moe](A)}$$$$ (last 3' nucleoside missing) | 4.5 |
| RNA1{[moe]([m5C])[sp].[moe]([m5C])p.[moe](G)p.[moe](G)p.d([m5C])[sp].d([m5C])[sp].d([m5C])[sp].d([m5C])[sp].d(T)[sp].d(A)[sp].d(G)[sp].d([m5C])[sp].d(G)[sp].[moe]([m5C])p.[moe](G)p.[moe]([m5C])p.[moe](G)[sp].[moe](A)}$$$$ (last 3' nucleoside missing) | 6 |
| RNA1{[moe]([m5C])[sp].[moe]([m5C])p.[moe](G)p.[moe](G)p.d([m5C])[sp].d([m5C])[sp].d([m5C])[sp].d([m5C])[sp].d(T)[sp].d(A)[sp].d(G)[sp].d([m5C])[sp].d(G)[sp].d([m5C])[sp].[moe](G)p.[moe]([m5C])p.[moe](G)p.[moe](A)[sp].[moe]([m5C])}$$$$ (last 3' nucleoside missing) | 4.25 |
| RNA1{[moe]([m5C])[sp].[moe]([m5C])p.[moe](G)p.d(G)[sp].d([m5C])[sp].d([m5C])[sp].d([m5C])[sp].d([m5C])[sp].d(T)[sp].d(A)[sp].d(G)[sp].d([m5C])[sp].d(G)[sp].[moe]([m5C])p.[moe](G)p.[moe]([m5C])p.[moe](G)p.[moe](A)[sp].[moe]([m5C])}$$$$ (last 3' nucleoside missing) | 3.25 |
| RNA1{[moe]([m5C])[sp].[moe]([m5C])p.[moe](T)p.[moe](A)[sp].d(G)[sp].d([m5C])[sp].d(G)[sp].d([m5C])[sp].d(G)[sp].d([m5C])[sp].d(G)[sp].d(A)[sp].[moe]([m5C])p.[moe](T)p.[moe]([m5C])p.[moe]([m5C])[sp].[moe](T)}$$$$ (last 3' nucleoside missing) | 3 |
| RNA1{[moe]([m5C])[sp].[moe]([m5C])p.[moe](T)p.[moe](A)p.[moe](G)p.[moe]([m5C])[sp].d(G)[sp].d([m5C])[sp].d(G)[sp].d([m5C])[sp].d(G)[sp].d(A)[sp].d([m5C])[sp].d(T)[sp].[moe]([m5C])p.[moe]([m5C])[sp].[moe](T)}$$$$ (last 3' nucleoside missing) | 6 |
| RNA1{[moe]([m5C])[sp].[moe]([m5C])p.[moe]([m5C])p.[moe](T)[sp].d(A)[sp].d(G)[sp].d([m5C])[sp].d(G)[sp].d([m5C])[sp].d(G)[sp].d([m5C])[sp].d(G)[sp].[moe](A)p.[moe]([m5C])p.[moe](T)p.[moe]([m5C])[sp].[moe]([m5C])}$$$$ (last 3' nucleoside missing) | 1 |
| RNA1{[moe]([m5C])[sp].[moe]([m5C])p.[moe]([m5C])p.[moe](T)p.[moe](A)p.[moe](G)[sp].d([m5C])[sp].d(G)[sp].d([m5C])[sp].d(G)[sp].d([m5C])[sp].d(G)[sp].d(A)[sp].d([m5C])[sp].[moe](T)p.[moe]([m5C])[sp].[moe]([m5C])}$$$$ (last 3' nucleoside missing) | 3 |
| RNA1{[moe]([m5C])[sp].[moe]([m5C])p.[moe]([m5C])p.[moe](T)p.[moe](A)p.[moe](G)p.d([m5C])[sp].d(G)[sp].d([m5C])[sp].d(G)[sp].d([m5C])[sp].d(G)[sp].d(A)[sp].d([m5C])[sp].d(T)[sp].d([m5C])[sp].[moe]([m5C])p.[moe](T)[sp].[moe](G)}$$$$ (last 3' nucleoside missing) | 1.25 |
| RNA1{[moe]([m5C])[sp].[moe]([m5C])p.[moe]([m5C])p.[moe](T)p.d(A)[sp].d(G)[sp].d([m5C])[sp].d(G)[sp].d([m5C])[sp].d(G)[sp].d([m5C])[sp].d(G)[sp].d(A)[sp].d([m5C])[sp].[moe](T)p.[moe]([m5C])p.[moe]([m5C])p.[moe](T)[sp].[moe](G)}$$$$ (last 3' nucleoside missing) | 1.75 |
| RNA1{[moe]([m5C])[sp].[moe]([m5C])p.[moe]([m5C])p.[moe]([m5C])[sp].d(T)[sp].d(A)[sp].d(G)[sp].d([m5C])[sp].d(G)[sp].d([m5C])[sp].d(G)[sp].d([m5C])[sp].[moe](G)p.[moe](A)p.[moe]([m5C])p.[moe](T)[sp].[moe]([m5C])}$$$$ (last 3' nucleoside missing) | 1 |
| RNA1{[moe]([m5C])[sp].[moe]([m5C])p.[moe]([m5C])p.[moe]([m5C])p.[moe](T)p.[moe](A)[sp].d(G)[sp].d([m5C])[sp].d(G)[sp].d([m5C])[sp].d(G)[sp].d([m5C])[sp].d(G)[sp].d(A)[sp].[moe]([m5C])p.[moe](T)[sp].[moe]([m5C])}$$$$ (last 3' nucleoside missing) | 2 |
| RNA1{[moe]([m5C])[sp].[moe]([m5C])p.[moe]([m5C])p.[moe]([m5C])p.[moe](T)p.[moe](A)p.d(G)[sp].d([m5C])[sp].d(G)[sp].d([m5C])[sp].d(G)[sp].d([m5C])[sp].d(G)[sp].d(A)[sp].d([m5C])[sp].d(T)[sp].[moe]([m5C])p.[moe]([m5C])[sp].[moe](T)}$$$$ (last 3' nucleoside missing) | 6 |
| RNA1{[moe]([m5C])[sp].[moe]([m5C])p.[moe]([m5C])p.[moe]([m5C])p.d(T)[sp].d(A)[sp].d(G)[sp].d([m5C])[sp].d(G)[sp].d([m5C])[sp].d(G)[sp].d([m5C])[sp].d(G)[sp].d(A)[sp].[moe]([m5C])p.[moe](T)p.[moe]([m5C])p.[moe]([m5C])[sp].[moe](T)}$$$$ (last 3' nucleoside missing) | 3.75 |
